Laboratory results taken from patent US20190322676A1, “CERAMIDE GALACTOSYLTRANSFERASE INHIBITORS FOR THE TREATMENT OF DISEASE” (BioMarin Pharmaceutical Inc., priority 2016, published 2019).
pIC50: −log10 of the molar value. Counter-ions that a name gives are not always drawn.

molecular target: T1, human CGT (ceramide galactosyltransferase), CHO/CGT lysate (Homo sapiens, UniProt Q16880); assay: CGT enzyme assay, RapidFire/MS/MS readout (Table 1 ranges with one asterisk *); assay type: biochemical; details: RapidFire method (range with one asterisk *)
T1 construct: Full-length human CGT cDNA was cloned into the BamH1/Xho1 site of pcDNA3.1 (+); expressed in transfected cells; host or cells: Chinese hamster ovary (CHO) cells; lysate prepared with M-PER
T1 sequence (Q16880 21-541): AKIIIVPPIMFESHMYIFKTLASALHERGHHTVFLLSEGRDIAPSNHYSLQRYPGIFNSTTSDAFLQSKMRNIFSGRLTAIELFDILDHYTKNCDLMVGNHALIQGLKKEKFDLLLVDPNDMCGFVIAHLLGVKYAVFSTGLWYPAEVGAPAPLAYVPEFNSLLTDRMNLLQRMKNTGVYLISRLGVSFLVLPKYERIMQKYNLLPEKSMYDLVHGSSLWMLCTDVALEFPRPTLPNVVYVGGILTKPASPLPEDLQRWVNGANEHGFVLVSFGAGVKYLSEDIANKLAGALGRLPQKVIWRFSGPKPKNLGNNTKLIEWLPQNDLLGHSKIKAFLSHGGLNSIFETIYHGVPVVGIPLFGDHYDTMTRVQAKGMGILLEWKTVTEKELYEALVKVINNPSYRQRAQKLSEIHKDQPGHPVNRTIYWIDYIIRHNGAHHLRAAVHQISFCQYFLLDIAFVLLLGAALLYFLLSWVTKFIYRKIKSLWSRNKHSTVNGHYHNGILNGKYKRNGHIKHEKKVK
Summary of the method: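 Lysate (4 μg) of CHO cells transfected with full-length human CGT incubated 1 h at 37 °C with compound (0.001–50 μM) in pH 7.2 HEPES buffer with 10 μM C6-NBD-dihydro-ceramide, 17.5 μM UDP-galactose, Mg2+/Mn2+, CHAPS, BSA, 0.5% DMSO; ** set also contained 0.01% Tween 80. Product quantified by RapidFire/MS/MS, normalized to internal standard; IC50 from sigmoidal variable-slope fits.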

First: CN([C@@H](C(=O)N1CCC(N)CC1)C(F)(F)c1ccc(Cl)cc1)S(=O)(=O)c1ccc2cc(OC3CCCC3)ccc2c1 [Compound 100-2, (S)—N-(3-(4-aminopiperidin-1-yl)-1-(4-chlorophenyl)-1,1-difluoro-3-oxopropan-2-yl)-6-(cyclopentyloxy)-N-methylnaphthalene-2-sulfonamide]
Second: CN([C@@H](C(=O)N1CCC(N)CC1)C(F)(F)c1ccc(Br)cc1)S(=O)(=O)c1ccc2cc(OC3CCCC3)ccc2c1 [Compound 44-2, (S)—N-(3-(4-aminopiperidin-1-yl)-1-(4-bromophenyl)-1,1-difluoro-3-oxopropan-2-yl)-6-(cyclopentyloxy)-N-methylnaphthalene-2-sulfonamide]
The pIC50 of the first is lower: 4.52 to 5.00 for the first, 5.00 to 6.00 for the second. The second is the more potent here.

First: NC1CC2CCC(C1)N2C(=O)[C@H](NS(=O)(=O)c1ccc(OCC2CCCC2)cc1)C(F)(F)c1ccc(C(F)(F)F)cc1 (stereo partly drawn) [Compound 60-2, N-((2S)-3-(3-amino-8-azabicyclo[3.2.1]octan-8-yl)-1,1-difluoro-3-oxo-1-(4-(trifluoromethyl)phenyl)propan-2-yl)-4-(cyclopentylmethoxy)benzenesulfonamide]
Second: NC1CC2CCC(C1)N2C(=O)[C@@H](NS(=O)(=O)c1ccc2c(cnn2CC2CCCC2)c1)C(F)(F)c1ccc(C(F)(F)F)cc1 (stereo partly drawn) [Compound 92-1, N-((2R)-3-(3-amino-8-azabicyclo[3.2.1]octan-8-yl)-1,1-difluoro-3-oxo-1-(4-(trifluoromethyl)phenyl)propan-2-yl)-1-(cyclopentylmethyl)-1H-indazole-5-sulfonamide]
The pIC50 of the first is lower: 4.52 to 5.00 for the first, over 6.00 for the second. The second is the more potent here.

`N[C@H]1CCN(C(=O)[C@H](NS(=O)(=O)c2ccc3cc(OC4CCCC4)ccc3c2)C(F)(F)c2ccc(Br)cc2)C1` [Compound 140-2, N—((S)-3-((S)-3-aminopyrrolidin-1-yl)-1-(4-bromophenyl)-1,1-difluoro-3-oxopropan-2-yl)-6-(cyclopentyloxy)naphthalene-2-sulfonamide] and `N[C@H]1CCCN(C(=O)[C@H](NS(=O)(=O)c2ccc3cc(OC4CCCC4)ccc3c2)C(F)(F)c2ccc(Br)cc2)C1` [Compound 132-2, N—((S)-3-((S)-3-aminopiperidin-1-yl)-1-(4-bromophenyl)-1,1-difluoro-3-oxopropan-2-yl)-6-(cyclopentyloxy)naphthalene-2-sulfonamide trifluoroacetate] fall in the same range of pIC50: 4.52 to 5.00 for the first, 4.52 to 5.00 for the second.

`COc1cc(C(F)(F)[C@@H](NS(=O)(=O)c2ccc(OCC3CCCCC3)cc2)C(=O)N2C3CCC2CC(N)C3)ccc1Br` (stereo partly drawn) [Compound 128-2, N-((2S)-3-(3-amino-8-azabicyclo[3.2.1]octan-8-yl)-1-(4-bromo-3-methoxyphenyl)-1,1-difluoro-3-oxopropan-2-yl)-4-(cyclohexylmethoxy)benzenesulfonamide] and `NC1CC2CCC(C1)N2C(=O)[C@@H](NS(=O)(=O)c1ccc(OCC2CCCC2)cc1)C(F)(F)c1ccc2cc(Br)ccc2c1` (stereo partly drawn) [Compound 39-1, N-((2R)-3-(3-amino-8-azabicyclo[3.2.1]octan-8-yl)-1-(6-bromonaphthalen-2-yl)-1,1-difluoro-3-oxopropan-2-yl)-4-(cyclopentylmethoxy) benzenesulfonamide trifluoroacetate] fall in the same range of pIC50: 5.00 to 6.00 for the first, 5.00 to 6.00 for the second.

First: NC1CCN(C(=O)[C@@H](NS(=O)(=O)c2ccc3cc(OC4CCCC4)ccc3c2)C(F)(F)c2ccc(Br)cc2)CC1 [Compound 32-1, (R)—N-(3-(4-aminopiperidin-1-yl)-1-(4-bromophenyl)-1,1-difluoro-3-oxopropan-2-yl)-6-(cyclopentyloxy)naphthalene-2-sulfonamide trifluoroacetate]
Second: NC1CCN(C(=O)[C@H](NS(=O)(=O)c2ccc3cc(OC4CCCC4)ccc3c2)C(F)(F)c2ccc(-c3ccccc3)cc2)CC1 [Compound 43-2, (S)—N-(1-([1,1′-biphenyl]-4-yl)-3-(4-aminopiperidin-1-yl)-1,1-difluoro-3-oxopropan-2-yl)-6-(cyclopentyloxy)naphthalene-2-sulfonamide]
The pIC50 of the first is higher: over 6.00 for the first, 5.00 to 6.00 for the second. The first is the more potent here.

First: NC1CCN(C(=O)[C@H](NS(=O)(=O)c2ccc3cc(OC4CCCC4)ccc3c2)C(F)(F)c2ccc(Oc3ccccc3)cc2)CC1 [Compound 61-2, (S)—N-(3-(4-aminopiperidin-1-yl)-1,1-difluoro-3-oxo-1-(4-phenoxyphenyl)propan-2-yl)-6-(cyclopentyloxy)naphthalene-2-sulfonamide]
Second: NC1CCN(C(=O)[C@H](NS(=O)(=O)c2ccc3cc(OC4CCCC4)ccc3c2)C(F)(F)c2ccc(OC3CCCCC3)cc2)CC1 [Compound 97-2, (S)—N-(3-(4-aminopiperidin-1-yl)-1-(4-(cyclohexyloxy)phenyl)-1,1-difluoro-3-oxopropan-2-yl)-6-(cyclopentyloxy)naphthalene-2-sulfonamide]
The pIC50 of the first is higher: over 6.00 for the first, 5.00 to 6.00 for the second. The first is the more potent here.

First: CC(C)Oc1ccc2cc(S(=O)(=O)N(C)[C@H](C(=O)N3C4CCC3CC(N)C4)C(F)(F)c3ccc(Br)cc3)ccc2c1 (stereo partly drawn) [Compound 46-1, N-((2R)-3-(3-amino-8-azabicyclo[3.2.1]octan-8-yl)-1-(4-bromophenyl)-1,1-difluoro-3-oxopropan-2-yl)-6-isopropoxy-N-methylnaphthalene-2-sulfonamide trifluoroacetate]
Second: CN([C@@H](C(=O)N1C2CCC1CC(N)C2)C(F)(F)c1ccc(O)cc1)S(=O)(=O)c1ccc2cc(OC3CCCC3)ccc2c1 (stereo partly drawn) [Compound 110-2, N-((2S)-3-(3-amino-8-azabicyclo[3.2.1]octan-8-yl)-1,1-difluoro-1-(4-hydroxyphenyl)-3-oxopropan-2-yl)-6-(cyclopentyloxy)-N-methylnaphthalene-2-sulfonamide trifluoroacetate]
The pIC50 of the first is higher: 5.00 to 6.00 for the first, 4.00 to 4.52 for the second. The first is the more potent here.

First: CN([C@@H](C(=O)N1C2CCC1CC(N)C2)C(F)(F)c1cccc(Br)c1)S(=O)(=O)c1ccc2cc(OC3CCCC3)ccc2c1 (stereo partly drawn) [Compound 67-2, N-((2S)-3-(3-amino-8-azabicyclo[3.2.1]octan-8-yl)-1-(3-bromophenyl)-1,1-difluoro-3-oxopropan-2-yl)-6-(cyclopentyloxy)-N-methylnaphthalene-2-sulfonamide]
Second: NC1CC2CCC(C1)N2C(=O)[C@@H](NS(=O)(=O)c1ccc2cc(OC3CCCCC3)ccc2c1)C(F)(F)c1ccc(Br)cc1 (stereo partly drawn) [Compound 33-1, N-((2R)-3-(3-amino-8-azabicyclo[3.2.1]octan-8-yl)-1-(4-bromophenyl)-1,1-difluoro-3-oxopropan-2-yl)-6-(cyclohexyloxy)naphthalene-2-sulfonamide trifluoroacetate]
The pIC50 of the first is lower: 4.00 to 4.52 for the first, over 6.00 for the second. The second is the more potent here.

First: CCCCOc1ccc(C(F)(F)[C@H](NS(=O)(=O)c2ccc3cc(OC4CCCC4)ccc3c2)C(=O)N2C3CCC2CC(N)C3)cc1 (stereo partly drawn) [Compound 82-1, N-((2R)-3-(3-amino-8-azabicyclo[3.2.1]octan-8-yl)-1-(4-butoxyphenyl)-1,1-difluoro-3-oxopropan-2-yl)-6-(cyclopentyloxy)naphthalene-2-sulfonamide trifluoroacetate]
Second: NC1CC2CCC(C1)N2C(=O)[C@H](NS(=O)(=O)c1ccc(OCC2CCCCC2)cc1)C(F)(F)c1ccc(-c2ccccc2)cc1 (stereo partly drawn) [Compound 35-2, N-((2S)-1-([1,1′-biphenyl]-4-yl)-3-(3-amino-8-azabicyclo[3.2.1]octan-8-yl)-1,1-difluoro-3-oxopropan-2-yl)-4-(cyclohexylmethoxy) benzenesulfonamide trifluoroacetate]
The pIC50 of the first is higher: over 6.00 for the first, 4.52 to 5.00 for the second. The first is the more potent here.
